In assay [1] the target is mut 5-mer EZH2 (EZH2 Y641N, PRC2 complex) (Homo sapiens, UniProt Q15910, Y641N). Description: EZH2 Y641N mut 384-well biochemical assay (SPA, 3H-SAM).
Description: (§2) The purpose of this assay is to measure the compound effect on the catalytic activity of EZH2 WT/Y641N in the context of the PRC2 complex.
(§3) Express FLAG-tagged EZH2 or EZH2 Y641N as the PRC2 5-membered (5-mer) complex consisting of EZH2, EED, SUZ12, RBBP4 and AEBP proteins using a baculovirus expression system in Sf9 cells, and purify using FLAG® Affinity Purification (Sigma-Aldrich).
(§4) Place 20 μL 100% DMSO in dilution wells. Perform 3× serial dilutions by transferring 10 μL from one well to the next. […] In the WT assay, dispense 15 μL of the enzyme/tri-methyl H3 co-activator peptide mix into the assay plate, followed by 5 μL of the biotin H3 peptide substrate/^3H-SAM mix. Seal the plates and shake for 2 hr at RT. […] Plot normalized data and render curves using […] ® Condoseo as % inhibition (y axis) vs. log compound concentration (x-axis), and determine IC50 values using a 4-parameter nonlinear logistic fitting algorithm.
Assay [2] has as its target WT 5-mer EZH2 (PRC2 complex) (Homo sapiens, UniProt Q15910). Description: EZH2 WT 384-well biochemical assay (SPA, 3H-SAM).
Description: as §2, §3, §4
Another assay deals with A2780 tumor. In words: A2780 xenograft model, tumor growth. The assay is classed as in vivo, athymic nude mice. As for the experimental part: The effect of Example 38 compared to ovarian cancer SoC carboplatin plus paclitaxel is tested in vivo using an A2780 xenograft model Implant 2 million A2780 cells in 50% MATRIGEL® subcutaneously into the right hind flank of 10 athymic nude mice (Envigo RMS, Inc., Indianapolis, Ind.) per group. Begin treatment when tumors volumes reach 100-150 mm^3. Pretreat animals for 5 days with Example 38 followed by co-administration of Example 38 and SoC for at least 23 additional days or until vehicle tumor volumes reach 2000 mm^3. Formulate Example 38 in 1% HEC/0.25% TWEEN® 80/0.05% Antifoam and administer at 50 mpk twice a day (BID) by oral gavage (p.o.). Formulate carboplatin (APP Pharmaceuticals NDC 63323-172-60) in phosphate buffered saline (PBS) and administer at 60 mpk very 2 weeks (Q14D) by intraperitoneal (i.p.) injection. Formulate paclitaxel (Hospira, Inc NDC 61703-342-50) in PBS and administer at 10 mpk Q14D by intravenous (IV) injection. Measure tumor growth inhibition as ΔT/C (%), calculated as the mean of individual animal [(tumor volume at Example 38 treatment day 28 minus tumor volume at day 0), divided by (tumor volume at vehicle treatment day 28 minus tumor volume at day 0)], multiplied by 100. Table 2 summarizes the results of the effects of Example 38 and ovarian cancer SoC on A2780 tumor growth on day 28 of treatment.

The test system of the next assay is Caov-3. Description: Ovarian cancer cell line proliferation assay (CellTiter-Glo). The conditions noted are these: Homo sapiens, 240 h, 7- or 10-day assay. The assay is classed as cell-based. As for the experimental part: (§1) Test ovarian cancer cell lines for response to Example 1 or Example 38 in a 7- or 10-day proliferation assay. Optimize each cell line for cell number and splitting schedule which maximizes log phase growth in 96-well format during the 7 or 10-day period. Plate cells in a 96-well black, clear bottom, poly-D-lysine-coated 96-well plate (BD BioSciences; BD BIOCOAT™ Cellware, Poly-Lysine, Cat. #354640) on day 0 in a total volume of 90 μL cell culture media and incubate at 37° C./5% CO2 for 18-24 hrs. On day 1, prepare a compound dilution plate by the addition of 150 μL media containing 2% dimethyl sulfoxide (DMSO; Sigma-Aldrich Cat. #D2438) to columns 3-12 of a 96-well clear flat bottom plate (CORNING® COSTAR® cell culture plate Cat #3596). Prepare 10 mM stocks of Example 1 or Example 38 in 100% DMSO, and further dilute to a working concentration of 200 μM in cell culture media. Add 225 μL of Example 1 or Example 38 to column 2 of the compound dilution plate, and prepare 1:3 10-point serial dilutions of test compound with columns 3 through 12. Add 10 μL of serially diluted compound to cell plates, giving a final test compound concentration range of 1 nM to 20 μM and a final concentration of DMSO of 0.2%. At the end of the 7- or 10-day assay period, subject cells to the CELLTITER-GLO® Luminescent Cell Viability Assay (Promega, Cat. #G7570) as follows: 1) Thaw the CELLTITER-GLO® buffer and equilibrate to room temperature; 2) Equilibrate the lyophilized CELLTITER-GLO® substrate to room temperature; 3) Transfer CELLTITER-GLO® buffer to substrate bottle to form the CELLTITER-GLO® reagent; 4) Equilibrate cell plates to room temperature; 5) For adherent cells only—remove medium from cell plates; 6) Add 25 μL CELLTITER-GLO® reagent to each well; 7) Let plates incubate an additional 20-30 min at room temperature; 8) Read luminescence using the Perkin Elmer EnVision 2104 Multi Detection Microplate Reader.
A general note: ATP-based viability assays read luminescence as a measure of living cells.

The next assay has as its system HeyA8. The description is as above. The assay is classed as cell-based. The conditions noted are these: HEY A8, 240 h, 7- or 10-day assay. As for the experimental part:
as §1

A further assay deals with OVCAR3. Described as above. The assay is classed as cell-based. To be noted: Homo sapiens, OVCAR-3, 240 h, 7- or 10-day assay. As for the experimental part: as §1
For a further assay, the system named is TOV-21G. Described as above. The assay is classed as cell-based. To be noted: Homo sapiens, TOV21G, 240 h, 7- or 10-day assay. As for the experimental part: as §1
The next assay deals with COV-434. The description is as above. The format is cell-based. The conditions noted are these: COV434, 240 h, 7- or 10-day assay. As for the experimental part: as §1
The next assay relates to TOV-112D. Described as above. The conditions noted are these: Homo sapiens, TOV112D, 240 h, 7- or 10-day assay. The format is cell-based. As for the experimental part:
as §1

A further assay concerns A2780. The description is as above. The format is cell-based. To be noted: Homo sapiens, 240 h, 7- or 10-day assay. As for the experimental part:
as §1

The next assay deals with HEC59. The description is as above. To be noted: 240 h, 7- or 10-day assay. The assay is classed as cell-based. As for the experimental part: as §1
Another assay concerns SKOV3. The description is as above. The assay is classed as cell-based. To be noted: Homo sapiens, SK-OV-3, 240 h, 7- or 10-day assay. As for the experimental part: as §1

Chain of WT 5-mer EZH2 (PRC2 complex) (Q15910 whole entry): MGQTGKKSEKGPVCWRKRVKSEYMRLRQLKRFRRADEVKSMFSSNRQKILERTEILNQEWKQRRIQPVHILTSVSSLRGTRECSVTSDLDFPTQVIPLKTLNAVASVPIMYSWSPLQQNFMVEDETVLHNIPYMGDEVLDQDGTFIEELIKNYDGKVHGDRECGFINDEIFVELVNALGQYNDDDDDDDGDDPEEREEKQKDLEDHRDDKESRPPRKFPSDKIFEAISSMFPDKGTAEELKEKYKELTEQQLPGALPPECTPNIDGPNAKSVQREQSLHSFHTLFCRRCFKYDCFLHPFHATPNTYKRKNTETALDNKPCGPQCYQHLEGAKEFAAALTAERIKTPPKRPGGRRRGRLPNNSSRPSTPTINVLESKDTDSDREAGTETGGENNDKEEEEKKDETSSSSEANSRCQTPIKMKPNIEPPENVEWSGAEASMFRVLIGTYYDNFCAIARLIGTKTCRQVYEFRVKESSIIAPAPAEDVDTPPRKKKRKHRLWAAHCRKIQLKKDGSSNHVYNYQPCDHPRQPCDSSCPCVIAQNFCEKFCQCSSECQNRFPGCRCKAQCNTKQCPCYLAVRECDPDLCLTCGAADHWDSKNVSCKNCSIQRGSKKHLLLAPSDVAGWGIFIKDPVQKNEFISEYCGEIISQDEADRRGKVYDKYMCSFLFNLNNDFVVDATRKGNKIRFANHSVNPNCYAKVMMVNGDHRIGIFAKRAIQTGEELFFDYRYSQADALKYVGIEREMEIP
Chain of WT 5-mer EZH2 (PRC2 complex) (O75530 whole entry partner): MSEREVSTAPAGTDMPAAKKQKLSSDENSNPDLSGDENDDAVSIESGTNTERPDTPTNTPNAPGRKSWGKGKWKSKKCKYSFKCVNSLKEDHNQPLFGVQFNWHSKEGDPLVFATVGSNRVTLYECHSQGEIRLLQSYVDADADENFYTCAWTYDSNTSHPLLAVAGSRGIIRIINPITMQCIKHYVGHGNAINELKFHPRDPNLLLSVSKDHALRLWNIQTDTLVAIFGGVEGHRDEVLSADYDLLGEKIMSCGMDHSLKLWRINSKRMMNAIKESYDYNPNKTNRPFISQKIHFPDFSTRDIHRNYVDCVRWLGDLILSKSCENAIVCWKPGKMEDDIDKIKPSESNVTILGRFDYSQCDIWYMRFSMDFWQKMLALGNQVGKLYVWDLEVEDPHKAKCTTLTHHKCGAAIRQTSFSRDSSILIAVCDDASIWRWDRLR
Chain of WT 5-mer EZH2 (PRC2 complex) (Q15022 whole entry partner): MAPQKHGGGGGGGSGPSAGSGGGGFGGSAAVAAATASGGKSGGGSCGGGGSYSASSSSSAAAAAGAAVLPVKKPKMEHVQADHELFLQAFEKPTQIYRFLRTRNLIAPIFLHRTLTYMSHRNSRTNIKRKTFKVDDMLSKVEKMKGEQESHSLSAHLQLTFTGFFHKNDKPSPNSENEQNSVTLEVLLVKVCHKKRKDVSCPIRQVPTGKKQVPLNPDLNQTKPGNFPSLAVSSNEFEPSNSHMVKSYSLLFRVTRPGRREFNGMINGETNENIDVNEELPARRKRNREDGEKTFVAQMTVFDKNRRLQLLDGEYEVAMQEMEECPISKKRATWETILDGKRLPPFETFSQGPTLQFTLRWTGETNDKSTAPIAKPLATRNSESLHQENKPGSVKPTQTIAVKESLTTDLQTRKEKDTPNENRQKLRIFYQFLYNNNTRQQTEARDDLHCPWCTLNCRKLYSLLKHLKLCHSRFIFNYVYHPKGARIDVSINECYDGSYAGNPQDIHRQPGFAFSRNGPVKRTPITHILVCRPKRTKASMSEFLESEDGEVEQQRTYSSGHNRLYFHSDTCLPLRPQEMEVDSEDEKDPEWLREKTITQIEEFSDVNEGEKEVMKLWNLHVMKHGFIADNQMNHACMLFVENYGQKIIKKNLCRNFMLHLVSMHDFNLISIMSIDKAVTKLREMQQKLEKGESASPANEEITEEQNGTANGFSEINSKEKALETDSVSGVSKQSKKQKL
Chain of WT 5-mer EZH2 (PRC2 complex) (Q09028 whole entry partner): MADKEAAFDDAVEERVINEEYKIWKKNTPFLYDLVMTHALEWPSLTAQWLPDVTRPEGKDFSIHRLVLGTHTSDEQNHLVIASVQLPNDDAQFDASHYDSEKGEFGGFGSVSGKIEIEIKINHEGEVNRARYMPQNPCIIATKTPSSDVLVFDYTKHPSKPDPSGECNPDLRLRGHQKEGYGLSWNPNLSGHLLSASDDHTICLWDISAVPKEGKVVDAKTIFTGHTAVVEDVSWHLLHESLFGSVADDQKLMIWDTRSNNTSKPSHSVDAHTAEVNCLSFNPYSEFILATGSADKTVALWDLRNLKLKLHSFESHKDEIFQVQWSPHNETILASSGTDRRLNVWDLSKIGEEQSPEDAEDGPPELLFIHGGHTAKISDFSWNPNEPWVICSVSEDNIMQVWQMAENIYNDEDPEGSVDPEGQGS
Chain of WT 5-mer EZH2 (PRC2 complex) (Q6ZN18 whole entry partner): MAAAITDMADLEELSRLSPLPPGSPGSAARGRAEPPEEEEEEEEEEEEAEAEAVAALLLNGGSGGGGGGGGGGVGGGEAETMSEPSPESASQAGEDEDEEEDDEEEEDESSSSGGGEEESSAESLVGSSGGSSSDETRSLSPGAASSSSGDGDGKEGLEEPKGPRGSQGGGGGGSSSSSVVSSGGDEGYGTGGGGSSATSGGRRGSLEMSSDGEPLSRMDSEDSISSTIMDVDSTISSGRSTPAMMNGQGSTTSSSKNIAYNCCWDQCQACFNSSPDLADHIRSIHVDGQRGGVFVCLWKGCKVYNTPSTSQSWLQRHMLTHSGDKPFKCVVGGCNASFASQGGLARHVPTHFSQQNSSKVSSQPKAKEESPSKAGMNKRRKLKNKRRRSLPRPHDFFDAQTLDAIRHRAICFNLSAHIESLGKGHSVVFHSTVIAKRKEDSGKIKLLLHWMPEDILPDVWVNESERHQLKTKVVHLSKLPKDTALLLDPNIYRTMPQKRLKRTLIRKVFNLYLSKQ
Chain of mut 5-mer EZH2 (EZH2 Y641N, PRC2 complex) (Q15910 whole entry Y641N): as the sequence (Q15910 whole entry) above, with Y641N counted along it
Chain of mut 5-mer EZH2 (EZH2 Y641N, PRC2 complex) (O75530 whole entry partner): as the sequence (O75530 whole entry partner) above
Chain of mut 5-mer EZH2 (EZH2 Y641N, PRC2 complex) (Q15022 whole entry partner): as the sequence (Q15022 whole entry partner) above
Chain of mut 5-mer EZH2 (EZH2 Y641N, PRC2 complex) (Q09028 whole entry partner): as the sequence (Q09028 whole entry partner) above
Chain of mut 5-mer EZH2 (EZH2 Y641N, PRC2 complex) (Q6ZN18 whole entry partner): as the sequence (Q6ZN18 whole entry partner) above

A word on the IC50: it is the concentration at which inhibition is half-maximal. Low values mean higher potency, high ones lower potency. On to `COC1CN([C@H]2CC[C@H]([C@@H](C)c3sc4c(c3C)C(=O)N(Cc3c(C)cc(C)[nH]c3=O)CC4)CC2)C1` [Example 1, 5-[(4,6-Dimethyl-2-oxo-1,2-dihydropyridin-3-yl)methyl]-2-{(1R)-1-[trans-4-(3-methoxyazetidin-1-yl)cyclohexyl]ethyl}-3-methyl-6,7-dihydrothieno[3,2-c]pyridin-4(5H)-one], for which the values for the IC50 in [1] and in [2] were 2.11 ± 0.58 nM and 2.06 ± 1.9 nM, respectively. Also, the “inhibition of the methyltransferase activity of EZH2 (in words)” value in assay [2] (recombinant WT/mut EZH2 in the context of the PRC2 complex) is recorded as “demonstrate inhibition”.

Regarding `COC1CN([C@H]2CC[C@H]([C@@H](C)c3sc4c(c3C)C(=O)N(Cc3c(C)cc(C)[nH]c3=O)CCC4)CC2)C1` [Example 38, 5-[(4,6-Dimethyl-2-oxo-1,2-dihydropyridin-3-yl)methyl]-2-{(1R)-1-[trans-4-(3-methoxyazetidin-1-yl)cyclohexyl]ethyl}-3-methyl-5,6,7,8-tetrahydro-4H-thieno[3,2-c]azepin-4-one], in the assay on A2780 tumor (A2780 tumor growth, dosing day 28, 50 mpk BID p.o., p < 0.001), the “ΔT/C (%)” value turned out to be 10.5%. Also, in the assay with A2780 tumor (A2780 xenograft, day 28 of treatment), the “effect on A2780 tumor growth (in words)” value is “significant inhibition”. The IC50 with Caov-3 was 8000 nM; in the assay with HeyA8, more than 20000 nM; in the assay with OVCAR3, 8600 nM; in the assay on TOV-21G, 100 nM; in the assay on COV-434, 20 nM; with TOV-112D, 200 nM. The IC50 in the assay on A2780 is 200 nM; in the assay on HEC59, more than 20000 nM; in the assay with SKOV3, more than 20000 nM.
